The values below come from patent US10093675B2, “6,8-disubstituted-9-(heterocyclyl)purines, compositions containing these derivatives and their use in cosmetic and medicinal applications” (USTAV EXPERIMENTALNI BOTANIKY AV CR, V.V.I., priority 2014, dated 2018).

Read-outs that look alike come from different tables or passages of the source.

Series [1] concerns osteosarcoma cell line HOS. The series is described as follows: In vitro cytotoxic activity (Calcein AM), HOS. It is filed as cell-based, human. The conditions noted are these: 72 hours, read-out: Cell line tested/IC50 (μmol/L) HOS. An excerpt: (§1) Because toxic compounds negatively influence metabolic processes of cells, many standard cytotoxicity assays are based on measurement of metabolisation rate of various artificial substrates. Resulting product is then quantified, for example, by means of spectrometry. The assays can be easily modified for use in 96-well plates. For evaluation of cytotoxicity of the […] of this invention, a microtiter assay based on quantification of metabolisation of Calcein AM was used. The assay is widely used in drug screening programs and in chemosensitivity testing. In live cells, Calcein AM is enzymatically hydrolysed and accumulation of resulting calcein is manifested by green fluorescence.
(§2) The following human cell lines were used for routine screening of the compounds: normal diploid fibroblasts BJ, T-lymphoblastic leukemia cell line CEM, promyelocytic leukemia cell line HL-60, erytroid leukemia cell line K-562, breast carcinoma cell line MCF-7, osteosarcoma cell line HOS and melanoma cell line G-361. The cells were maintained in Nunc/Corning 80 cm^2 plastic tissue culture flasks and cultured in cell culture medium (DMEM with 5 g/l glucose, 2 mM glutamine, 100 U/ml penicillin, 100 mmg/ml streptomycin, 10% fetal calf serum and sodium bicarbonate). The cell suspensions were prepared and diluted according to the particular cell type and the expected target cell density (2.500-30.000 cells per well based on cell growth characteristics) and pipetted (80 μl) into 96-well plates. Inoculates were allowed a pre-incubation period of 24 hours at 37° C. and 5% CO2 for stabilization. Tested compound was added in total volume of 20 μl of water at time zero. Usually, test compound was evaluated at six 3-fold dilutions. In routine testing, the highest concentration tested was 100 μM, but it could have been adjusted because of limited solubility of a compound. All drug concentrations were tested in triplicates.
(§3) Incubations of cells with the test compounds lasted for 72 hours at 37° C., in 5% CO2 atmosphere and 100% humidity. At the end of incubation period Calcein AM in PBS was added into final concentration of 1 μg/ml. After another 1 hour of incubation fluorescence (FD) was measured with the Labsystem FIA Reader Fluoroscan Ascent (UK). Growth inhibition (GI) was estimated using the following equitation: GI=(mean FDdrug exposed wells−mean FDblank)/(mean FDcontrol wells−mean FDblank)×100%. The GI50 value, the drug concentration causing 50% reduction of Calcein AM conversion, was calculated from the obtained dose response curves.

Series [2] has as its system Human diploid fibroblast BJ. Description: In vitro cytotoxic activity (MTT). The conditions noted are these: 72 hours incubation; concentration causing 20% decrease in mitochondrial dehydrogenase activity. Type of series: cell-based. As to the method:
MTT (metabolic tetrazolium toxicity) assay is a standard colorimetric assay for evaluation of cytotoxicity. Mitochondrial dehydrogenase activity converts yellow MTT into violet formazan which is measured by means of spectrometry.
Human diploid fibroblast BJ (passage 18-22) were seeded into 96-well plate (5.000 cells per well). After 6 hours cultivation medium (DMEM with 5 g/l glucose, 2 mM glutamine, 100 U/ml penicillin, 100 mmg/ml streptomycin, 10% fetal calf serum and sodium bicarbonate) was replaced with the cultivation medium containing test compounds in concentration range of 0-200 µM. Highest concentration was adjusted if the solubility of the compound was limiting. Every concentration was tested in pentaplicate. MTT was added to the cells after 72 hours incubation (final concentration 0.5 mg/ml) and incubation continued for another 3 hours. MTT was solubilised by DMSO and absorbance at 570 nm was measured. Growth inhibition (GI) was estimated using the following equitation: GI=(mean A drug exposed wells−mean Ablank/mean Acontrol wells−mean Ablank)×100%. The GI20 value, the drug concentration causing 20% decrease in mitochondrial dehydrogenase activity, was calculated from the obtained dose response curves.

In series [3] the test system is cytokinin-dependent tobacco callus Nicotiana tabacum L. cv. Wisconsin 38. The series is described as follows: Plant cell division: growth of cytokinin-dependent tobacco callus. Type of series: cell-based. Particulars: for Activity (%); (s.d.): relative activity at concentration with highest activity, 10^−6 M kinetin set at 100%; for Concentration with highest activity (mol/l): tobacco callus fresh weight increase after four weeks, tested 10^−8 M to 10^−4 M. As to the method: Cytokinin-dependent tobacco callus Nicotiana tabacum L. cv. Wisconsin 38 was maintained at 25° C. in darkness on modified MS medium, containing 4 μmol/l nicotinic acid, 2.4 μmol/l pyridoxine hydrochloride, 1.2 μmol/l thiamine, 26.6 μmol/l glycine, 1.37 μmol/l glutamine, 1.8 μmol/l myo-inositol, 30 g/l of sucrose, 8 g/l of agar, 5.37 μmol/l NAA and 0.5 μmol/l BAP. Subcultivation was carried out every three weeks. Fourteen days before the bioassay, the callus tissue was transferred to the media without BAP. Biological activity was determined from the increase in fresh callus weight after four weeks of cultivation. Five replicates were prepared for each cytokinin concentration and the entire test was repeated twice. From the obtained data, the concentration with highest activity was selected for each compound tested. Relative activity at this concentration was calculated (see Table 17 below). The activity obtained for 10^−6 M kinetin (Kin) was set as 100%.
The cytokinins to be tested were dissolved in dimethylsulfoxide (DMSO) and the solution brought up to 10^−3M with distilled water.

The test system of series [4] is breast carcinoma cell line MCF-7. Description: In vitro cytotoxic activity (Calcein AM), MCF-7. Particulars: read-out: Cell line tested/IC50 (μmol/L) MCF7. It is filed as cell-based, human.
From the text: as §1, §2, §3

Series [5] concerns T-lymphoblastic leukemia cell line CEM. The series is described as follows: In vitro cytotoxic activity (Calcein AM), CEM. Type of series: cell-based, human. The conditions noted are these: 72 hours, read-out: Cell line tested/IC50 (μmol/L) CEM.
From the text: as §1, §2, §3

Series [6] concerns erytroid leukemia cell line K-562. Description: In vitro cytotoxic activity (Calcein AM), K-562. It is filed as cell-based, human. Particulars: read-out: Cell line tested/IC50 (μmol/L) K-562.
From the text: as §1, §2, §3

Series [7] deals with Salmonella typhimurium histidien auxotrophs TA98 and TA100. The series is described as follows: Ames test. The conditions noted are these: 2.5 to 5000 μg/plate; presence and absence of Aroclor-induced rat liver S9. Type of series: cell-based. As to the method:
A number of tests related to the safety of have been carried out using conventionally accepted protocols and procedures. The results of these studies are summarized herein. Tests were carried out using DMSO as solvent and dose levels of compound 21, 24, 26, 27, 39, 41, 45, 48, 50, 52, 53, 54, 55, 56, 63, 64, 66, 67, 68, 69, 70, 71, 72, 74, 76, 124, 125, 126, 127, 128, 129, 130, 145, 146, 147, 149, 150, 151, 208, 216, 218 a 243 at 2.5, 5.0, 15, 50, 500, 1500, and 5000 μg/plate based upon standard protocol and procedures (Ames et al., Mutation Research, 31, 347-364 (1975); Maron et al., Mutation Research, 113, 173-215 (1983)).
(The Ames test uses bacterial strains that need an amino acid and regain growth without it when mutated back.)

The subject of a further series is melanoma cell line G-361. The series is described as follows: In vitro cytotoxic activity (Calcein AM), G-361. Particulars: read-out: Cell line tested/IC50 (μmol/L) G-361. Type of series: cell-based, human.
From the text: as §1, §2, §3

Series [8] has as its system normal diploid fibroblasts BJ. Description: In vitro cytotoxic activity (Calcein AM), BJ. Particulars: 72 hours, read-out: Cell line tested/IC50 (μmol/L) BJ. It is filed as cell-based, human.
From the text: as §1, §2, §3

Take `CSc1nc2c(NCc3cccc(O)c3)ncnc2n1C1CCCCO1` (stereo not drawn) [Compound 149]: the IC50 (in [1]; in series [4] (72 hours); in series [5]; in series [6] (72 hours); in the series with melanoma cell line G-361 (72 hours); in [8]) was above 50 µmol/L in each case. The “GI20” value in [2] was above 100 µM. Besides, the “Activity (%); (s.d.)” value in [3] is reported as 107 (±1) %. Moreover, the “Concentration with highest activity (mol/l)” value (“Concentration” below) in [3] is 10^−6-10^−4 mol/l. In addition, in series [7], the mutagenic response result was “no positive mutagenic responses”.
Turning to `COc1nc2c(NCC=C(C)C)ncnc2n1C1CCCO1` (stereo not drawn) [Compound 207], the IC50 (in [1]; in series [4] (72 hours); in series [5]; in [6] (72 hours); in the series on melanoma cell line G-361 (72 hours); in series [8]) was above 50 µmol/L in each case. Also, the “GI20” value in series [2] was above 100 µM. Further, the “Activity (%); (s.d.)” value in series [3] is 114 (±3) %. Further, in series [3], the “Concentration” value is reported as 10^−6-10^−4 mol/l.
Turning to `COc1cccc(CNc2ncnc3c2nc(OC)n3C2CCCCO2)c1` (stereo not drawn) [Compound 128], the IC50 (in [1]; in [4] (72 hours); in series [5]; in series [6] (72 hours); with melanoma cell line G-361 (72 hours); in series [8]) was above 50 µmol/L in each case. Moreover, the “GI20” value in series [2] is above 100 µM. The “Activity (%); (s.d.)” value in series [3] was 121 (±5) %. Also, the “Concentration” value in series [3] is reported as 10^−6-10^−5 mol/l. Also, in series [7], the mutagenic response entry is on record as “no positive mutagenic responses”.
On to `COc1nc2c(NCC=C(C)CO)ncnc2n1C1CCCO1` (stereo not drawn) [Compound 208], for which the IC50 (in series [1]; in [4] (72 hours); in [5]; in [6] (72 hours); in the series on melanoma cell line G-361 (72 hours); in series [8]) was above 50 µmol/L throughout. The “GI20” value in [2] is above 100 µM. Besides, the “Activity (%); (s.d.)” value in series [3] is on record as 119 (±7) %. The “Concentration” value in series [3] is 10^−6-10^−4 mol/l. The mutagenic response result in series [7] is “no positive mutagenic responses”.
Consider `COc1cccc(CNc2ncnc3c2nc(SC)n3C2CCCCO2)c1` (stereo not drawn) [Compound 150], for which the IC50 (in series [1]; in [4] (72 hours); in series [5]; in series [6] (72 hours); in the series with melanoma cell line G-361 (72 hours); in series [8]) was above 50 µmol/L each time. In [2], the “GI20” value was above 100 µM. In series [3], the “Activity (%); (s.d.)” value was 105 (±2) %. In series [3], the “Concentration” value is 10^−6-10^−5 mol/l. Also, the mutagenic response result in series [7] is recorded as “no positive mutagenic responses”.
In the case of `CSc1nc2c(NCc3cccc(F)c3)ncnc2n1C1CCCCO1` (stereo not drawn) [Compound 151], the IC50 (in series [1]; in series [4] (72 hours); in series [5]; in [6] (72 hours); in the series with melanoma cell line G-361 (72 hours); in series [8]) was above 50 µmol/L in each case. For the same compound, the “GI20” value in series [2] was above 100 µM. Further, in series [3], the “Activity (%); (s.d.)” value is on record as 109 (±5) %. Also, the “Concentration” value in [3] is given as 10^−6-10^−4 mol/l. For the same compound, in series [7], the mutagenic response entry was “no positive mutagenic responses”.
In the case of `CC(C)=CCNc1ncnc2c1nc(Cl)n2C1CCCCO1` (stereo not drawn) [Compound 3, 8-Chloro-6-(3-methylbut-2-en-1-ylamino)-9-(tetrahydropyran-2-yl)-9H-purine], the IC50 in series [1] (Homo sapiens) was above 50 µmol/L; in series [4] (Homo sapiens, MCF7, 72 hours) it was above 50 µmol/L; in series [5] (Homo sapiens), above 50 µmol/L; in series [6] (Homo sapiens, K562, 72 hours), above 50 µmol/L; in the series with melanoma cell line G-361 (Homo sapiens, G-361, 72 hours), above 50 µmol/L; in series [8] (Homo sapiens, Fibroblast) it was above 50 µmol/L. The “GI20” value in [2] was above 50 µM. Besides, in series [3], the “Activity (%); (s.d.)” value is 118 (±6) %.
Turning to `COc1cccc(CNc2ncnc3c2nc(OC)n3C2CCCO2)c1` (stereo not drawn) [Compound 209], the IC50 (in series [1]; in series [4] (72 hours); in series [5]; in series [6] (72 hours); in the series on melanoma cell line G-361 (72 hours); in series [8]) was above 50 µmol/L in each case. In addition, the “GI20” value in [2] is above 100 µM. For the same compound, the “Activity (%); (s.d.)” value in [3] is recorded as 112 (±4) %. Also, the “Concentration” value in [3] is listed as 10^−6-10^−4 mol/l.
On to `CC(C)=CCNc1ncnc2c1nc(Br)n2C1CCCCO1` (stereo not drawn) [Compound 23, 8-Bromo-6-(3-methylbut-2-en-1-ylamino)-9-(tetrahydropyran-2-yl)-9H-purine], for which the IC50 in series [1] (Homo sapiens) was above 50 µmol/L; in [4] (Homo sapiens, MCF7, 72 hours) it was above 50 µmol/L; in series [5] (Homo sapiens), above 50 µmol/L; in [6] (Homo sapiens, K562, 72 hours) it was above 50 µmol/L; in the series with melanoma cell line G-361 (Homo sapiens, G-361, 72 hours) it was above 50 µmol/L; in series [8] (Homo sapiens, Fibroblast), above 50 µmol/L. In addition, the “GI20” value in series [2] was above 100 µM. Also, the “Activity (%); (s.d.)” value in series [3] was 125 (±7) %.
As to `CC(C)=CCNc1ncnc2c1nc(Cl)n2C1CCCO1` (stereo not drawn) [Compound 65], the IC50 (in series [1]; in [4] (72 hours); in [5]; in series [6] (72 hours); in the series with melanoma cell line G-361 (72 hours); in series [8]) was above 50 µmol/L in each case. The “GI20” value in [2] was above 100 µM. For the same compound, the “Activity (%); (s.d.)” value in series [3] is 127 (±9) %. Further, the “Concentration” value in series [3] is reported as 10^−6-10^−4 mol/l.
